Measurements as given in US11427588B2, “Compositions and methods for treating neurodegenerative diseases and cardiomyopathy” (THE REGENTS OF THE UNIVERSITY OF CALIFORNIA, priority 2013, dated 2022).
“Also recorded” adds a separate entry of the source. Read-outs that look alike come from different tables or passages of the source.

What was measured:
SH-SY5Y cells = test: H2O2 induced apoptosis, Annexin V / PI FACS assay; format: cell-based, human; details: for total amount of apoptotic cells: 50 μM for 96 hours, then 400 μM H2O2 for 24 hours
Experimental: Apoptosis assays and PINK1 shRNA: SH-SY5Y cells (ATCC) were cultured in 1:1 mix of F12K and DMEM supplemented with 20% FBS. PINK1 shRNA lentivirus were produced using a pLKO.1 based shRNA (Sigma) by contransfection with Δ8.9 and pMGD2 vectors in HEK293T cells. SH-SY5Y cells were infected with lentivirus followed by selection with puromycin ([…]). […] Subsequently, cells were stained with Annexin V-FITC and PI and analyzed (FACS Diva) on a FACS LSRII Cytometer ([…]) Apoptosis was calculated as the difference between H2O2 treated samples and the respective control.
Overexpression of PINK1 in neuronal cells (e.g. dopaminergic (DA)) promotes survival in response to oxidative stress and other mitochondrial toxins^7. Before testing the effects of kinetin on apoptosis, we treated DA neurons with 50 μM of either kinetin or adenine and measured cell density after 10 days. […] SH-SY5Y cells were treated with 50 μM kinetin, adenine or DMSO for 96 hours, followed by 400 μM H2O2 treatment for additional 24 hours. Using a cytometry-based FACS assay involving cellular annexin V and propidium iodide staining, we determined the percentage of apoptotic cells after treatment with DMSO, adenine or kinetin.

PINK1−/− mice = test: Heart health and performance in mice treated from birth; format: in vivo
Experimental: PINK1 expression is protective in several mouse models of heart failure. PINK1wt expression will block pathological hypertrophy, increase heart fractional shortening, and prevent ischemia induced death of heart tissue. To assay the effect of kinetin PINK1 wt or PINK1−/− mice were treated with vehicle, adenine or kinetin from birth following published protocols for administration of kinetin (Hims et al., 2007; Shetty et al., 2011). The mice were sacrificed and whole hearts analyzed, and isolated cardiomyocytes from mice at appropriate time periods (e.g. 2 and 6 months). O2 consumption, mitochondrial integrity (mtDNA abundance, mitochondrial capacity and JC-1 fluorescence) caspase 3/7 cleavage activity and TUNEL staining were measured to assess the health of these tissues. According to published results (Billia et al., 2011; Chen and Dorn, 2013), PINK1 activity is essential for normal 02 consumption and maintenance of mitochondrial integrity. Decreased 02 consumption and mitochondrial integrity in PINK1−/− mice was compared to PINK1wt mice. […] Additionally, caspase 3/7 cleavage activity and TUNEL staining of the left ventricle were increased in PINK1−/− mice derived cardiomyocytes compared to PINK1wt.
In addition to these analyses we analyzed the performance of the heart in whole animals. We utilized the same procedure as above and treated either PINK1wt or PINK1−/− mice with vehicle, adenine or kinetin from birth following published protocols for administration of kinetin (Hims et al., 2007; Shetty et al., 2011). […] These characteristics of pathological hypertrophy indicate heart failure in the PINK1−/− mice will not increase as dramatically in PINK1wt mice (Billia et al., 2011). […] These experiments indicate that amplification of PINK1 activity by treatment with kinetin can block age-induced loss in heart function.

Parkin and Bcl-xL = test: Phosphorylation level of Parkin and Bcl-xL in neuronal cell lines; format: cell-based
Excerpt: (§1) Kinetin mediated PINK1 activity amplification was characterized using a variety of cell lines and primary cells. The HL-1 cell line, an established cardiomyocyte cell line that retains characteristic properties of differentiated cardiac tissue (Claycomb et al., 1998) as well as freshly isolated cardiomyocytes from PINK1wt or PINK1−/− mice. Infected HL-1 cells with a lentivirus expressing shRNA targeting PINK1, were developed to generate a PINK1 knockdown control. To analyze the amplification of PINK1 kinase activity we analyzed the phosphorylation level of Bcl-xL, Mfn2, and Parkin following treatment of PINK1wt and PINK1 knockdown or −/− cell lines with DMSO or 25 μM adenine, kinetin or 9-methyl kinetin (9MK negative control) and fCCCP for three to twenty-four hours following published protocols (Arena et al., 2013; Chen and Dorn, 2013; Kondapalli et al., 2012). […] Accordingly, PINK1wt expressing cells see an increase in PINK1 dependent phosphorylation, but not in those cells where PINK1 has been depleted.

[1] = test system: PINK1 knockout derived hippocampal neurons; test: Mitochondrial motility assay in axons; format: cell-based, mouse
Excerpt: (§2) Mitochondrial motility assay: Primary hippocampal neuronal cultures were co-transfected with mitochondrial targeted GFP (mitoGFP) and mCherry-tagged synaptophysin (mCherrySynaptophysin) to allow for the live identification of mitochondria in axons.
(§3) To test if kinetin decreases motility we examined the mobility of axonal mitochondria in hippocampal neurons. Primary hippocampal neuronal cultures were co-transfected with mitoGFP and mCherry-tagged Synaptophysin (mCherrySynaptophysin) to allow for the live identification of mitochondria in axons. […] To test the PINK1 dependency of this process, we treated control mouse C57 (PINK1 wildtype) and PINK1 knockout derived hippocampal neurons with kinetin or 9MK and imaged their mitochondria.

[2] = test system: C57 (PINK1 wildtype) derived hippocampal neurons; test: Mitochondrial motility assay in axons; format: cell-based, mouse
Excerpt: as §2, §3

PINK1wt mice = test: Induced myocardial infarction model; format: in vivo; details: two weeks dosing
Experimental: Utilizing mice dosed with kinetin, adenine or vehicle for two weeks, we induced myocardial infarction by ligating the left anterior descending artery at the level of the left atrial appendage (Wang et al., 2006) or sham surgery. Following infarct for 24 or 72 hours, we sacrificed the mice and analyzed the heart by TUNEL staining as cardiomyocytes are susceptible to cell death following infarct. […] These experiments replicate our results in neurons in which kinetin treatment will block apoptosis in response to a number of cellular stressors.

rat hippocampal neurons = test: Mitochondrial motility assay in axons; format: cell-based; details: 50 μM
Excerpt: as §2, §3

SH-SY5Y = format: in vitro ADME; details: not told
Excerpt: We included negative control analogs of Kinetin which prevent metabolism.

[3] = test system: PINK1wt HL-1 cells or cardiomyocytes derived from PINK1wt mice; test: Apoptosis of cardiomyocytes after mitochondrial toxins (caspase 3/7, TUNEL, Annexin V); format: cell-based; details: 25 μM, versus control compounds or PINK1 knockdown or −/− cells
Excerpt: as §1
The amount of early apoptosis was measured using caspase 3/7 cleavage activity and later stage apoptosis by measuring the number of Terminal deoxynucleotidyl transferase dUTP nick end labeling (TUNEL) positive cells and Annexin V binding by FACS analysis following treatment with mitochondrial toxins. […]

| Structure (SMILES) | total amount of apoptotic cells (SH-SY5Y cells) | age induced pathological hypertrophy (PINK1−/− mice) | total amount of apoptotic cells (SH-SY5Y cells; listed as Kinetin) | total number of apoptotic cells (SH-SY5Y cells; 48 hours of treatment, then 24 hours of 400 uM hydrogen peroxide) | phosphorylation level of Parkin and Bcl-xL (Parkin and Bcl-xL) | mitochondrial motility [1] | mitochondrial motility ([1]; listed as Kinetin) | mitochondrial motility [2] | TUNEL positive cells in the peri-infarct area (PINK1wt mice; 24 or 72 hours after infarct) | scar size and level of collagen deposition (PINK1wt mice; post-infarct) | mitochondrial movement / motility (rat hippocampal neurons; 48 hours pre-treatment) | velocity of mitochondria that remain in motion (rat hippocampal neurons; 48 hours, retrograde direction) | membrane impermeable metabolite after incubation (SH-SY5Y) | apoptosis levels [3] |
| --- | --- | --- | --- | --- | --- | --- | --- | --- | --- | --- | --- | --- | --- | --- |
| Nc1ncnc2nc[nH]c12 [adenine, reference compound] | no significant change | no effect | – | – | – | – | – | – | – | – | – | – | – | – |
| c1coc(CNc2ncnc3[nH]cnc23)c1 [kinetin] | significant decrease; also recorded: blocks apoptosis | no effect | blocks apoptosis | Decrease in the total number of apoptotic cells | significant increase | no change in motility | no effect on mitochondrial motility | decrease in motility | significant decrease in TUNEL positive cells | significant decrease in the scar size and the level of collagen deposition | potently and specifically inhibited | slows; also recorded: decrease in the velocity of mitochondria in the retrograde direction | presence of a membrane impermeable metabolite | significantly lower levels |
